“And” between values parts separate entries of the source, which are not always exact repeats. Equal values may be shown once.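 All cell lines were grown in 96-well plates and treated with compound for 48 hours. GI50 is the concentration that inhibits growth by half. TGI marks complete inhibition of growth.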
Tests used:
Assay in all cases: DTP human tumour cell line panel, 48 h
HCT-15 colon = test system: HCT-15 colon
KM20L2 colon = test system: KM20L2 colon
DMS 273 small cell lung = test system: DMS 273 small cell lung
KM12 colon = test system: KM12 colon
HCC-2998 colon = test system: HCC-2998 colon
CCRF-CEM leukemia = test system: CCRF-CEM leukemia
MALME-3M melanoma = test system: MALME-3M melanoma
SF-295 CNS = test system: SF-295 CNS
XF 498 CNS = test system: XF 498 CNS
NCI-H460 lung = test system: NCI-H460 lung
EKVX NSCLC = test system: EKVX NSCLC
DLD-1 colon = test system: DLD-1 colon

SMILES | TGI (HCT-15 colon) | TGI (KM20L2 colon) [µM] | TGI (DMS 273 small cell lung) [µM] | TGI (KM12 colon) | TGI (HCC-2998 colon) | TGI (CCRF-CEM leukemia) | TGI (MALME-3M melanoma) | TGI (SF-295 CNS) | TGI (XF 498 CNS) [µM] | TGI (NCI-H460 lung) | TGI (EKVX NSCLC) | GI50 (HCT-15 colon) | GI50 (KM12 colon) | GI50 (HCC-2998 colon) | GI50 (CCRF-CEM leukemia) | GI50 (MALME-3M melanoma) | GI50 (SF-295 CNS) | GI50 (NCI-H460 lung) | GI50 (EKVX NSCLC) | TGI (DLD-1 colon) [µM]
ClC1=C(Cl)C(Cl)(Cl)c2c3c(c4c(c21)C(Cl)(Cl)C(Cl)=C4Cl)C(Cl)(Cl)C(Cl)=C3Cl | > 100 µM | > 100 | > 100 | > 100 µM | > 100 µM | > 100 µM | > 100 µM | > 100 µM | > 100 | > 100 µM | > 100 µM | – | – | – | – | – | – | – | – | –
COc1cc2c(cc1F)C(c1ccccc1Cl)=Nc1c(n[nH]c1C)N2 | 19.7 µM | – | – | 15.5 µM | 24.1 µM | > 100 µM | 32.7 µM | 15.7 µM | – | 26.5 µM | 18.4 µM | 0.705 µM | 0.502 µM | 11.3 µM | 0.982 µM | 18 µM | 0.477 µM | 0.498 µM | 2.84 µM | –
COc1cc(C(=O)Nc2cc(O)c(CC=C(C)C)c(O)c2)cc2c1O[C@]1(C)CC[C@@H](O)C(C)(C)[C@H]1C2 | 14.4 µM | – | – | 12.9 µM | 13.8 µM | > 100 µM | 20 µM | 0.325 µM | – | 19.1 µM | 32 µM | 1.32 µM | 1.76 µM | 3.13 µM | 0.0962 µM | 2.85 µM | 0.0397 µM | 0.547 µM | 2.71 µM | –
O=c1c2cc(F)ccc2sc2c(NCCCNCCO)nc3ccccc3c12 | 3.12 µM | – | – | 3.52 µM | 3.34 µM | 4.76 µM | 3.09 µM | 3.26 µM | – | 3.19 µM | 3.47 µM | 1.63 µM | 1.84 µM | 1.69 µM | 2.02 µM | 1.61 µM | 1.77 µM | 1.64 µM | 1.67 µM | –
Oc1c(-c2cc(C(F)(F)F)[nH]n2)cc(Cl)c(OCc2ccc(Cl)cc2)c1-c1ccc(Cl)c(C(F)(F)F)c1 | 0.693 µM | – | – | 2.66 µM | 4.53 µM | 4.77 µM | 2.19 µM | 1.96 µM | – | 2.57 µM | 5.56 µM | 0.153 µM | 0.862 µM | 0.739 µM | 0.192 µM | 0.789 µM | 0.607 µM | 0.361 µM | 0.795 µM | –
c1cc(N2CCN(c3ccc(C4=NCCCN4)cc3)CC2)ccc1C1=NCCCN1 | > 100 µM | – | – | > 100 µM | > 45.2 µM | > 100 µM | > 100 µM | > 100 µM | – | > 100 µM | > 100 µM | > 100 µM | > 42.1 µM | – | > 61.4 µM | > 47.6 µM | > 25.1 µM | > 58.6 µM | > 100 µM | –
Cc1ccncc1C(N)=O | > 100 µM | – | – | > 100 µM | > 100 µM | > 100 µM | > 100 µM | > 100 µM | – | > 100 µM | > 100 µM | > 100 µM | > 100 µM | > 100 µM | > 100 µM | > 100 µM | > 100 µM | > 100 µM | > 100 µM | –
O=C1c2c(Br)sc(Br)c2[C@@H](NC(=O)C(F)(F)F)C1Br (some centres not stated) | 4.61 µM | – | – | 17.7 µM | 7.8 µM | 5.64 µM | 4.88 µM | 31.6 µM | – | 31 µM | 11.6 µM | – | – | – | – | – | – | – | – | –
C1CSCCSCCCSCCSCCCSCCSCCCSCCSC1 | > 100 µM | – | – | > 100 µM | > 100 µM | > 100 µM | > 100 µM | > 100 µM | – | > 100 µM | > 100 µM | – | – | – | – | – | – | – | – | –
O=C(Cc1nc2ccccc2o1)C(=O)Nc1cccc(C(F)(F)F)c1 | > 100 µM | > 100 | > 100 | > 100 µM | > 100 µM | > 100 µM | > 100 µM | > 100 µM | – | > 100 µM | > 100 µM | – | – | – | – | – | – | – | – | > 100
COc1cccc(C2c3cc4c(cc3OC3COC(=O)C32)OCO4)c1OC (configuration not stated) | > 100 µM | – | – | > 100 µM | > 100 µM | > 100 µM | > 100 µM | > 100 µM | – | > 100 µM | > 100 µM | – | – | – | – | – | – | – | – | –
COc1ccc(/C=C(/C)[N+](=O)[O-])cc1OC | 5.47 µM and 2.67 µM | – | – | 9.69 µM and 5.79 µM | 3.27 µM and 3.32 µM | 5.31 µM and 5.72 µM | 3.89 µM and 1.56 µM | 32.4 µM and 27.1 µM | – | 7.78 µM and 9.48 µM | 28.6 µM and 19.8 µM | 2.08 µM and 1.02 µM | 3.66 µM and 2.1 µM | 1.8 µM and 1.77 µM | 1.96 µM and 0.786 µM | 1.69 µM and 0.38 µM | 17.4 µM and 12.5 µM | 2.78 µM and 3.14 µM | 10.9 µM and 5.4 µM | –

Source: PubChem BioAssay (NCI)
